Laboratory results as given in US11014911B2, “CDK2 inhibitors” (Pfizer Inc., priority 2019, dated 2021).

Target: CDK2/Cyclin E1 full length (Homo sapiens (Human), UniProt P24941)
Assay: CDK2/Cyclin E1 full length mobility shift assay
Assay type: biochemical

Compound	Ki
CC[C@H](C)NC(=O)O[C@@H]1CC[C@H](c2cc(NC(=O)Cc3cncc(C(F)(F)F)n3)n[nH]2)C1 [Example 362, (1R,3S)-3-[3-({[6-(trifluoromethyl)pyrazin-2-yl]acetyl}amino)-1H-pyrazol-5-yl]cyclopentyl (2S)-butan-2-ylcarbamate]	0.84 nM
COc1ccc(CC(=O)Nc2cc([C@@H]3CC[C@H](OC(=O)N[C@H]4CC[C@@H](O)CC4)C3)[nH]n2)cn1 [Example 553, (1S,3R)-3-(3-{[(6-methoxypyridin-3-yl)acetyl]amino}-1H-pyrazol-5-yl)cyclopentyl (cis-4-hydroxycyclohexyl)carbamate]	0.41 nM
COc1ccc(CC(=O)Nc2cc([C@@H]3CC[C@H](OC(=O)N[C@H]4CC[C@H](O)CC4)C3)[nH]n2)cn1 [Example 556, (1S,3R)-3-(3-{[(6-methoxypyridin-3-yl)acetyl]amino}-1H-pyrazol-5-yl)cyclopentyl (trans-4-hydroxycyclohexyl)carbamate]	0.46 nM
CC1(NC(=O)O[C@@H]2CC[C@H](c3cc(NC(=O)Cc4ccc5ncccc5n4)n[nH]3)C2)CC1 [Example 132]	0.19 nM
COc1cc(CC(=O)Nc2cc([C@@H]3CC[C@H](OC(=O)NCC4CCOCC4)C3)[nH]n2)ccn1 [Example 512, (1S,3R)-3-(3-{[(2-methoxypyridin-4-yl)acetyl]amino}-1H-pyrazol-5-yl)cyclopentyl (tetrahydro-2H-pyran-4-ylmethyl)carbamate]	3.2 nM
O=C(Cc1ccc(C(F)(F)F)nc1)Nc1cc([C@@H]2CC[C@H](OC(=O)NC[C@H]3C[C@@H]3CO)C2)[nH]n1 [Example 580, (1S,3R)-3-[3-({[6-(trifluoromethyl)pyridin-3-yl]acetyl}amino)-1H-pyrazol-5-yl]cyclopentyl {[(1S,2S)-2-(hydroxymethyl)cyclopropyl]-methyl}carbamate]	3.38 nM
COC[C@H](C)NC(=O)O[C@@H]1CC[C@H](c2cc(NC(=O)Cc3ccccc3)[nH]n2)C1 [Example 517, (1R,3S)-3-{5-[(phenylacetyl)amino]-1H-pyrazol-3-yl}cyclopentyl [(2S)-1-methoxypropan-2-yl]carbamate]	1.29 nM
Cc1nnc(CC(=O)Nc2cc([C@H]3CC[C@@H](OC(=O)NC4(C)CCC4)C3)[nH]n2)o1 [Example 459, (1R,3S)-3-(3-{[(5-methyl-1,3,4-oxadiazol-2-yl)acetyl]amino}-1H-pyrazol-5-yl)cyclopentyl (1-methylcyclobutyl)carbamate]	0.32 nM
COc1cnc(CC(=O)Nc2cc([C@H]3CC[C@@H](OC(=O)N4[C@@H](C)C[C@@H]4C)C3)[nH]n2)cn1 [Example 610, (1R,3S)-3-(3-{[(5-methoxypyrazin-2-yl)acetyl]amino}-1H-pyrazol-5-yl)cyclopentyl (2S,4S)-2,4-dimethylazetidine-1-carboxylate]	1.04 nM
Cc1cnc(CC(=O)Nc2cc([C@H]3CC[C@@H](OC(=O)NC(C)CC(F)F)C3)[nH]n2)o1 (single isomer, unassigned) [Example 96]	2.05 nM
CC(C)NC(=O)O[C@@H]1CC[C@H](c2cc(NC(=O)Cc3ccn(C)n3)n[nH]2)C1 [Example 267, (1R,3S)-3-(3-{[(1-methyl-1H-pyrazol-3-yl)acetyl]amino}-1H-pyrazol-5-yl)cyclopentyl propan-2-ylcarbamate]	3.02 nM
COc1cc(C(=O)Nc2cc([C@H]3CC[C@@H](OC(=O)NC4(C)CCOC4)C3)[nH]n2)n(C)n1 (single isomer, unassigned) [Example 479]	0.89 nM
COc1cnc(CC(=O)Nc2cc([C@H]3CC[C@@H](OC(=O)NC4(C)CCOC4)C3)[nH]n2)cn1 (single isomer, unassigned) [Example 485]	1.41 nM
COC[C@H](C)NC(=O)O[C@@H]1CC[C@H](c2cc(NC(=O)Cc3cnc(C(F)(F)F)cn3)n[nH]2)C1 [Example 523, (1R,3S)-3-[3-({[5-(trifluoromethyl)pyrazin-2-yl]acetyl}amino)-1H-pyrazol-5-yl]cyclopentyl [(2S)-1-methoxypropan-2-yl]carbamate]	2.49 nM
CC(CC(F)(F)F)N(C)C(=O)O[C@@H]1CC[C@H](c2cc(NC(=O)c3cnnn3C)n[nH]2)C1 (single isomer, unassigned) [Example 412]	0.19 nM
O=C(Cc1cc(F)cc(F)c1)Nc1cc([C@@H]2CC[C@H](OC(=O)NC[C@H]3C[C@@H]3CO)C2)[nH]n1 [Example 579, (1S,3R)-3-(3-{[(3,5-difluorophenyl)acetyl]amino}-1H-pyrazol-5-yl)cyclopentyl {[(1S,2S)-2-(hydroxymethyl)cyclopropyl]-methyl}carbamate]	2.41 nM
Cc1ncc(CC(=O)Nc2cc([C@H]3CC[C@@H](OC(=O)NCC(F)F)C3)[nH]n2)s1 [Example 249, (1R,3S)-3-(3-{[(2-methyl-1,3-thiazol-5-yl)acetyl]amino}-1H-pyrazol-5-yl)cyclopentyl (2,2-difluoroethyl)carbamate]	2.32 nM
O=C(Cc1ccc(C(F)(F)F)nc1)Nc1cc([C@@H]2CC[C@H](OC(=O)NCC3CCOCC3)C2)[nH]n1 [Example 514, (1S,3R)-3-[3-({[6-(trifluoromethyl)pyridin-3-yl]acetyl}amino)-1H-pyrazol-5-yl]cyclopentyl (tetrahydro-2H-pyran-4-ylmethyl)carbamate]	2.78 nM
CC[C@H](C)NC(=O)O[C@@H]1CC[C@H](c2cc(NC(=O)Cc3cnc(OC)cn3)n[nH]2)C1 [Example 347, (1R,3S)-3-(3-{[(5-methoxypyrazin-2-yl)acetyl]amino}-1H-pyrazol-5-yl)cyclopentyl (2S)-butan-2-ylcarbamate]	0.37 nM

Compound	Ki
CC[C@H](C)NC(=O)O[C@@H]1CC[C@H](c2cc(NC(=O)Cc3nnc(C)o3)n[nH]2)C1 [Example 334, (1R,3S)-3-(3-{[(5-methyl-1,3,4-oxadiazol-2-yl)acetyl]amino}-1H-pyrazol-5-yl)cyclopentyl (2S)-butan-2-ylcarbamate]	1.6 nM
CCNC(=O)O[C@@H]1CC[C@H](c2cc(NC(=O)Cc3ccc(F)cc3)n[nH]2)C1 [Example 228, (1R,3S)-3-(3-{[(4-fluorophenyl)acetyl]amino}-1H-pyrazol-5-yl)cyclopentyl ethylcarbamate]	1.84 nM
CC[C@H](C)NC(=O)O[C@@H]1CC[C@H](c2cc(NC(=O)Cc3ccccc3S(C)(=N)=O)n[nH]2)C1 (single isomer, unassigned) [Example 369]	0.84 nM
O=C(Cc1ccon1)Nc1cc([C@H]2CC[C@@H](OC(=O)NC3(CC(F)(F)F)CC3)C2)[nH]n1 [Example 451, (1R,3S)-3-{3-[(1,2-oxazol-3-ylacetyl)amino]-1H-pyrazol-5-yl}cyclopentyl [1-(2,2,2-trifluoroethyl)cyclopropyl] carbamate]	0.46 nM
COc1cnc(CC(=O)Nc2cc([C@H]3CC[C@@H](OC(=O)NCCC(F)(F)F)C3)[nH]n2)s1 [Example 223, (1R,3S)-3-(3-{[(5-methoxy-1,3-thiazol-2-yl)acetyl]amino}-1H-pyrazol-5-yl)cyclopentyl (3,3,3-trifluoropropyl)carbamate]	2.33 nM
Cc1ccc(C(=O)Nc2cc([C@H]3CC[C@@H](OC(=O)NC4(CC(F)(F)F)CC4)C3)[nH]n2)cn1 [Example 452, (1R,3S)-3-(3-{[(6-methylpyridin-3-yl)carbonyl]amino}-1H-pyrazol-5-yl)cyclopentyl [1-2,2,2-trifluoroethyl)cyclopropyl] carbamate]	0.51 nM
COc1ccc(CC(=O)Nc2cc([C@H]3CC[C@@H](OC(=O)N4CCC4C)C3)[nH]n2)cn1 (single isomer, unassigned) [Example 152]	1.06 nM
O=C(Cc1cc(F)cc(F)c1)Nc1cc([C@@H]2CC[C@H](OC(=O)NC[C@H]3C[C@@H](O)C3)C2)[nH]n1 [Example 575, (1S,3R)-3-(3-{[(3,5-difluorophenyl)acetyl]amino}-1H-pyrazol-5-yl)cyclopentyl [(cis-3-hydroxycyclobutyl)methyl] carbamate]	2.28 nM
CN1CC(CNC(=O)O[C@H]2CC[C@@H](c3cc(NC(=O)Cc4cc(F)cc(F)c4)n[nH]3)C2)OCC1=O (single isomer, unassigned) [Example 584]	3.84 nM
Cc1csc(CC(=O)Nc2cc([C@H]3CC[C@@H](OC(=O)NC(C)C)C3)[nH]n2)n1 [Example 274, (1R,3S)-3-(3-{[(4-methyl-1,3-thiazol-2-yl)acetyl]amino}-1H-pyrazol-5-yl)cyclopentyl propan-2-ylcarbamate]	2.62 nM
CC(C)NC(=O)O[C@@H]1CC[C@H](c2cc(NC(=O)c3cncn3C)n[nH]2)C1 [Example 260, (1R,3S)-3-(3-{[(1-methyl-1H-imidazol-5-yl)carbonyl]amino}-1H-pyrazol-5-yl)cyclopentyl propan-2-ylcarbamate]	2.89 nM
Cc1ccc(C(=O)Nc2cc([C@H]3CC[C@@H](OC(=O)NC(C)CC(F)(F)F)C3)[nH]n2)cn1 (single isomer, unassigned) [Example 69]	4.26 nM
COCCn1nccc1C(=O)Nc1cc([C@H]2CC[C@@H](OC(=O)NC(C)CC(F)(F)F)C2)[nH]n1 (single isomer, unassigned) [Example 87]	1.32 nM
CC(C)NC(=O)O[C@@H]1CC[C@H](c2cc(NC(=O)Cc3cccc4ncsc34)n[nH]2)C1 [Example 284, (1R,3S)-3-{3-[(1,3-benzothiazol-7-ylacetyl)amino]-1H-pyrazol-5-yl}cyclopentyl propan-2-ylcarbamate]	0.6 nM
Cc1cccnc1CC(=O)Nc1cc([C@H]2CC[C@@H](OC(=O)NC3(C)CC3)C2)[nH]n1 [Example 427, (1R,3S)-3-(3-{[(3-methylpyridin-2-yl)acetyl]amino}-1H-pyrazol-5-yl)cyclopentyl (1-methylcyclopropyl)carbamate]	1.78 nM
CC1(NC(=O)O[C@@H]2CC[C@H](c3cc(NC(=O)Cc4cc(C(F)(F)F)ccn4)n[nH]3)C2)CC1 [Example 444, (1R,3S)-3-[3-({[4-(trifluoromethyl)pyridin-2-yl]acetyl}amino)-1H-pyrazol-5-yl]cyclopentyl (1-methylcyclopropyl)carbamate]	1.41 nM
CCC(O)CNC(=O)O[C@@H]1CC[C@H](c2cc(NC(=O)Cc3ccc(OC)cc3)n[nH]2)C1 (single isomer, unassigned) [Example 541]	1.85 nM
Cn1ncc(CC(=O)Nc2cc([C@H]3CC[C@@H](OC(=O)NC4(C)CCOC4)C3)[nH]n2)c1C(F)(F)F (single isomer, unassigned) [Example 496]	2.25 nM
